Patent publication US10543208B2, “Treatment of gliomas using organonitro compound combination therapy” (priority 2015, dated 2020)

Tested on: temozolomide-resistant EGFRvIII/Arfko GBM (NSCG) cells
Assay: Survival of mice after intracranial injection of NSCG tumors
Type: in vivo, FVBN mice
Details: ABDNAZ 10 mg/kg intraperitoneal, temozolomide 40 mg/kg oral gavage
Experimental: Mice implanted with temozolomide-resistant EGFRvIII/Arfko GBM (NSCG) cells were treated with (i) ABDNAZ (RRx-001, 10 mg/kg, intraperitoneal injection), (ii) temozolomide (TMZ)(40 mg/kg, oral gavage), or (iii) ABDNAZ (10 mg/kg, intraperitoneal injection) and temozolomide (40 mg/kg, oral gavage).
NSCG tumors were intracranially injected into FVBN mice. Mice to be treated were treated with one of the following (i) ABDNAZ (10 mg/kg, intraperitoneal injection), (ii) temozolomide (40 mg/kg, oral gavage), or (iii) ABDNAZ (10 mg/kg, intraperitoneal injection) and temozolomide (40 mg/kg, oral gavage). In a first experiment, treatment (i.e., administration of ABDNAZ (RRx-001), temozolomide (TMZ), or both ABDNAZ and temozolomide) was started five days after intracranial injection of NSCG cells. The control population of mice contained ten mice, the group receiving only ABDNAZ had twelve mice, the group receiving only temozolomide had twelve mice, and the group receiving both ABDNAZ and temozolomide had sixteen mice. Mouse survival was monitored over time.
In a second experiment, treatment (i.e., administration of ABDNAZ (RRx-001), temozolomide (TMZ), or both ABDNAZ and temozolomide) was started ten days after intracranial injection of NSCG cells. The control population of mice contained three mice, the group receiving only ABDNAZ had five mice, the group receiving only temozolomide had four mice, and the group receiving both ABDNAZ and temozolomide had six mice. Mouse survival was monitored over time.

[1] = treatment started five days after intracranial injection of NSCG cells, control 22.2
[2] = treatment started ten days after intracranial injection of NSCG cells, control 22.1

O=C(CBr)N1CC([N+](=O)[O-])([N+](=O)[O-])C1 [ABDNAZ]
Median Survival Time [1]: 25.3 days
Median Survival Time [2]: 22.5 days

Cn1nnc2c(C(N)=O)ncn2c1=O [TMZ, 3,4-dihydro-3-methyl-4-oxoimidazo[5,1-d]-as-tetrazine-8-carboxamide]
Median Survival Time [1]: 22.3 days
Median Survival Time [2]: 22.3 days
